# Several values for one entry are separate records, joined by “and”; a condition that tells them apart may be missing. Identical values can stand only once. Toxic doses and inconclusive results are not listed.
# System: P335 leukemia ip, BDF1 mice, survival T/C %
# Test: NCI In Vivo Anticancer Drug Screen. Data for tumor model P335 Leukemia (intraperitoneal) in B6D2F1 (BDF1) mice
# Details: endpoint: mean survival time, higher = longer survival
# Description: The antitumor activity of compounds was measured in mice bearing transplantable tumors. Survival or tumor size were measured and the results are expressed as the measurement made in the treated group (T) divided by the measurement made in the vehicle treated control group (C). The tumor model used in this assay is P335 Leukemia (intraperitoneal) in B6D2F1 (BDF1) mice
# [1] = dose: 0.16 mg/kg/injection, schedule: Q01DX Z (ip), vehicle: carboxymethylcellulose (CMC)
# [2] = dose: 0.31 mg/kg/injection, schedule: Q01DX Z (ip), vehicle: carboxymethylcellulose (CMC)
# [3] = dose: 1.25 mg/kg/injection, schedule: Q01DX Z (ip), vehicle: carboxymethylcellulose (CMC)
# [4] = dose: 8.0 mg/kg/injection, schedule: Q01DX Z (ip), vehicle: carboxymethylcellulose (CMC)
# [5] = dose: 16.0 mg/kg/injection, schedule: Q01DX Z (ip), vehicle: carboxymethylcellulose (CMC)
# [6] = dose: 31.25 mg/kg/injection, schedule: Q01DX Z (ip), vehicle: carboxymethylcellulose (CMC)
# [7] = dose: 125.0 mg/kg/injection, schedule: Q01DX Z (ip), vehicle: carboxymethylcellulose (CMC)
# [8] = dose: 25.0 mg/kg/injection, schedule: Q01DX Z (ip), vehicle: water
# [9] = dose: 50.0 mg/kg/injection, schedule: Q01DX Z (ip), vehicle: water
# [10] = dose: 25.0 mg/kg/injection, schedule: Q01DX Z (ip), vehicle: carboxymethylcellulose (CMC)
# [11] = dose: 50.0 mg/kg/injection, schedule: Q01DX Z (ip), vehicle: carboxymethylcellulose (CMC)
# [12] = dose: 100.0 mg/kg/injection, schedule: Q01DX Z (ip), vehicle: carboxymethylcellulose (CMC)
# [13] = dose: 200.0 mg/kg/injection, schedule: Q01DX Z (ip), vehicle: carboxymethylcellulose (CMC)
smiles,measurement,setting,value
Nc1nc2n[nH]nc2c(=O)[nH]1,T/C,"dose: 100.0 mg/kg/injection, schedule: Q01DX Z (ip), vehicle: other",115 % of control
S=c1nc[nH]c2nc[nH]c12,T/C,"dose: 37.5 mg/kg/injection, schedule: Q01DX Z (ip), vehicle: other",116 % of control
same,T/C,"dose: 75.0 mg/kg/injection, schedule: Q01DX Z (ip), vehicle: other",114 % of control
same,T/C,"dose: 300.0 mg/kg/injection, schedule: Q01DX Z (ip), vehicle: other",122 % of control
Nc1ncnc2c1ccn2C1OC(CO)C(O)C1O (centres undefined),T/C,"dose: 0.08 mg/kg/injection, schedule: Q01DX Z (ip), vehicle: carboxymethylcellulose (CMC)",110 % of control
same,T/C,[1],97 % of control
same,T/C,[2],95 % of control
same,T/C,"dose: 0.32 mg/kg/injection, schedule: Q01DX Z (ip), vehicle: carboxymethylcellulose (CMC)",121 % of control
same,T/C,[3],93 % of control
N[C@@H](Cc1ccc(N(CCCl)CCCl)cc1)C(=O)O,T/C,"dose: 1.25 mg/kg/injection, schedule: Q01DX Z (ip), vehicle: saline",168 % of control
same,T/C,"dose: 2.5 mg/kg/injection, schedule: Q01DX Z (ip), vehicle: saline",169 % of control and 195 % of control
same,T/C,"dose: 5.0 mg/kg/injection, schedule: Q01DX Z (ip), vehicle: saline",106 % of control
CCOC(=O)NP(=O)(N1CC1(C)C)N1CC1(C)C (centres undefined),T/C,"dose: 4.0 mg/kg/injection, schedule: Q01DX Z (ip), vehicle: carboxymethylcellulose (CMC)",101 % of control
same,T/C,[4],106 % of control
same,T/C,[5],114 % of control
same,T/C,[6],101 % of control
same,T/C,[7],88 % of control
same,T/C,"dose: 250.0 mg/kg/injection, schedule: Q01DX Z (ip), vehicle: carboxymethylcellulose (CMC)",93 % of control
CC(=O)[C@H]1CC[C@H]2[C@@H]3C[C@H](C)C4=CC(=O)CC[C@]4(C)[C@H]3C(=O)C[C@]12C,T/C,"dose: 12.5 mg/kg/injection, schedule: Q01DX Z (sc), vehicle: steriod suspending solution",120 % of control
same,T/C,"dose: 25.0 mg/kg/injection, schedule: Q01DX Z (sc), vehicle: steriod suspending solution",115 % of control
same,T/C,"dose: 50.0 mg/kg/injection, schedule: Q01DX Z (sc), vehicle: steriod suspending solution",119 % of control and 124 % of control
same,T/C,"dose: 100.0 mg/kg/injection, schedule: Q01DX Z (sc), vehicle: steriod suspending solution",107 % of control
same,T/C,"dose: 200.0 mg/kg/injection, schedule: Q01DX Z (sc), vehicle: steriod suspending solution",100 % of control
same,T/C,"dose: 400.0 mg/kg/injection, schedule: Q01DX Z (sc), vehicle: steriod suspending solution",88 % of control
O=CN(O)CC(=O)O,T/C,"dose: 125.0 mg/kg/injection, schedule: Q01DX Z (ip), vehicle: none",87 % of control
same,T/C,"dose: 250.0 mg/kg/injection, schedule: Q01DX Z (ip), vehicle: none",95 % of control
same,T/C,"dose: 500.0 mg/kg/injection, schedule: Q01DX Z (ip), vehicle: carboxymethylcellulose (CMC)",109 % of control
same,T/C,"dose: 500.0 mg/kg/injection, schedule: Q01DX Z (ip), vehicle: none",89 % of control
same,T/C,"dose: 1000.0 mg/kg/injection, schedule: Q01DX Z (ip), vehicle: carboxymethylcellulose (CMC)",93 % of control
Nc1nc(=S)c2ncn(C3OC(CO)C(O)C3O)c2[nH]1 (centres undefined),T/C,[1],93 % of control
same,T/C,[2],117 % of control
same,T/C,"dose: 0.63 mg/kg/injection, schedule: Q01DX Z (ip), vehicle: carboxymethylcellulose (CMC)",90 % of control
same,T/C,[3],90 % of control
CC[C@@H](c1ccc(O)cc1)[C@@H](CC)c1ccc(O)cc1,T/C,"dose: 16.0 mg/kg/injection, schedule: Q01DX Z (sc), vehicle: steriod suspending solution",96 % of control
same,T/C,"dose: 31.25 mg/kg/injection, schedule: Q01DX Z (sc), vehicle: steriod suspending solution",93 % of control
same,T/C,"dose: 125.0 mg/kg/injection, schedule: Q01DX Z (sc), vehicle: steriod suspending solution",96 % of control
same,T/C,"dose: 500.0 mg/kg/injection, schedule: Q01DX Z (sc), vehicle: steriod suspending solution",104 % of control
same,T/C,"dose: 1000.0 mg/kg/injection, schedule: Q01DX Z (sc), vehicle: steriod suspending solution",95 % of control
C[C@@H]1C[C@@H]([C@H](O)CC2CC(=O)NC(=O)C2)C(=O)[C@@H](C)C1,T/C,"dose: 0.78 mg/kg/injection, schedule: Q01DX Z (ip), vehicle: water",113 % of control
same,T/C,"dose: 1.56 mg/kg/injection, schedule: Q01DX Z (ip), vehicle: water",106 % of control and 112 % of control
same,T/C,"dose: 3.12 mg/kg/injection, schedule: Q01DX Z (ip), vehicle: water",89 % of control
same,T/C,"dose: 6.25 mg/kg/injection, schedule: Q01DX Z (ip), vehicle: water",100 % of control
same,T/C,"dose: 12.5 mg/kg/injection, schedule: Q01DX Z (ip), vehicle: water",106 % of control
same,T/C,[8],100 % of control
same,T/C,[9],111 % of control
CS(=O)(=O)OCCCl,T/C,"dose: 0.8 mg/kg/injection, schedule: Q01DX Z (ip), vehicle: carboxymethylcellulose (CMC)",98 % of control
same,T/C,"dose: 1.6 mg/kg/injection, schedule: Q01DX Z (ip), vehicle: carboxymethylcellulose (CMC)",93 % of control
same,T/C,"dose: 3.1 mg/kg/injection, schedule: Q01DX Z (ip), vehicle: carboxymethylcellulose (CMC)",102 % of control
same,T/C,"dose: 6.2 mg/kg/injection, schedule: Q01DX Z (ip), vehicle: carboxymethylcellulose (CMC)",86 % of control
O=c1[nH]c(=O)n(C2CC(O)C(CO)O2)cc1F (centres undefined),T/C,[10],111 % of control
same,T/C,[11],104 % of control
same,T/C,[12],111 % of control
same,T/C,[13],114 % of control
same,T/C,"dose: 400.0 mg/kg/injection, schedule: Q01DX Z (ip), vehicle: carboxymethylcellulose (CMC)",87 % of control
same,T/C,"dose: 800.0 mg/kg/injection, schedule: Q01DX Z (ip), vehicle: carboxymethylcellulose (CMC)",86 % of control
CCN(CC)C(=S)S,T/C,"dose: 125.0 mg/kg/injection, schedule: Q01DX Z (ip), vehicle: other",92 % of control
same,T/C,"dose: 250.0 mg/kg/injection, schedule: Q01DX Z (ip), vehicle: other",105 % of control
same,T/C,"dose: 500.0 mg/kg/injection, schedule: Q01DX Z (ip), vehicle: other",106 % of control
same,T/C,"dose: 500.0 mg/kg/injection, schedule: Q01DX Z (ip), vehicle: water",102 % of control
same,T/C,"dose: 1000.0 mg/kg/injection, schedule: Q01DX Z (ip), vehicle: other",103 % of control
same,T/C,"dose: 1000.0 mg/kg/injection, schedule: Q01DX Z (ip), vehicle: water",120 % of control
Clc1ncnc2nc[nH]c12,T/C,[4],89 % of control
same,T/C,[5],101 % of control
same,T/C,"dose: 31.0 mg/kg/injection, schedule: Q01DX Z (ip), vehicle: carboxymethylcellulose (CMC)",89 % of control
same,T/C,[6],110 % of control
same,T/C,"dose: 62.5 mg/kg/injection, schedule: Q01DX Z (ip), vehicle: carboxymethylcellulose (CMC)",101 % of control
same,T/C,[7],110 % of control
COS(C)(=O)=O,T/C,[8],87 % of control
same,T/C,[9],101 % of control
same,T/C,"dose: 100.0 mg/kg/injection, schedule: Q01DX Z (ip), vehicle: water",101 % of control
CC[C@]1(O)C[C@H]2CN(CCc3c([nH]c4ccccc34)[C@@](C(=O)OC)(c3cc4c(cc3OC)N(C=O)[C@H]3[C@@](O)(C(=O)OC)[C@H](OC(C)=O)[C@]5(CC)C=CCN6CC[C@]43[C@@H]65)C2)C1,T/C,"dose: 0.12 mg/kg/injection, schedule: Q01DX Z (ip), vehicle: water",234 % of control and 101 % of control and 107 % of control
same,T/C,"dose: 0.5 mg/kg/injection, schedule: Q01DX Z (ip), vehicle: water",89 % of control and 90 % of control
same,T/C,"dose: 1.0 mg/kg/injection, schedule: Q01DX Z (ip), vehicle: water",86 % of control
CCOC(N)=O,T/C,"dose: 63.0 mg/kg/injection, schedule: Q01DX Z (ip), vehicle: saline",95 % of control
same,T/C,"dose: 93.75 mg/kg/injection, schedule: Q01DX Z (ip), vehicle: saline",109 % of control
same,T/C,"dose: 125.0 mg/kg/injection, schedule: Q01DX Z (ip), vehicle: saline",108 % of control
same,T/C,"dose: 250.0 mg/kg/injection, schedule: Q01DX Z (ip), vehicle: saline",95 % of control
same,T/C,"dose: 500.0 mg/kg/injection, schedule: Q01DX Z (ip), vehicle: saline",112 % of control
Nc1ncnc2[nH]ncc12,T/C,"dose: 6.25 mg/kg/injection, schedule: Q01DX Z (ip), vehicle: carboxymethylcellulose (CMC)",89 % of control
same,T/C,"dose: 12.5 mg/kg/injection, schedule: Q01DX Z (ip), vehicle: carboxymethylcellulose (CMC)",92 % of control
O=C(Nc1ccc(C2=NCCN2)cc1)c1ccc(C(=O)Nc2ccc(C3=NCCN3)cc2)cc1,T/C,[10],112 % of control
same,T/C,[11],93 % of control
same,T/C,[12],112 % of control
same,T/C,[13],179 % of control
